# Test results reported in patent US20260077018A1, “TREATMENT OF MILD TRAUMATIC BRAIN INJURY” (OXEIA BIOPHARMACEUTICALS, INC., priority 2022, published 2026).
# No end group written: not given here. *: point of attachment. Octanoyl = CCCCCCCC(=O)*
# Test system: persistently symptomatic concussion patients
# Assay: Phase 2 study of OXE-103 in persistently symptomatic concussion: PCSS symptom scoring
# Type: in vivo, human
# Settings: for 30% Responders - PCSS: Number of Responders / 30% Responders - PCSS: Responder % / 20% Responders - PCSS: Number of Responders / 20% Responders - PCSS: Responder %: Treated, 13 subjects; for PCSS symptom balance_problems / PCSS symptom difficulty_concentrating / PCSS symptom difficulty_remembering / PCSS symptom dizziness / PCSS symptom drowsiness / PCSS symptom fatigue / PCSS symptom feeling_in_a_fog / PCSS symptom feeling_more_emotional / PCSS symptom feeling_slowed_down / PCSS symptom headache / PCSS symptom irritability / PCSS symptom nausea / PCSS symptom neck_pain / PCSS symptom nervous_anxious / PCSS symptom numbness_or_tingling / PCSS symptom sadness / PCSS symptom sensitivity_to_light / PCSS symptom sensitivity_to_noise / PCSS symptom sleeping_less_than_usual / PCSS symptom sleeping_more_than_usual / PCSS symptom trouble_falling_asleep / PCSS symptom visual_problems / PCSS symptom vomiting: aggregated
# Excerpt: Describe the change in symptom burden in sub-acute concussion for the two groups. A maximum of 50 subjects are enrolled, but recruiting stops if each arm has 20 participants, diagnosed with persistent concussion symptoms 28 days post injury who complete the study. Patients are randomized 1:1 to placebo versus OXE-103. The Post-Concussion Symptom Score questionnaire (PCSS) is used as an overall measure of symptom burden. The number of symptoms and severity at each time point are also measures of interest. In addition, subjects are asked to identify and rank the 4 most bothersome symptoms. Without being bound by theory, it is hypothesized that changes in these most bothersome symptoms have a higher correlation to improvement in quality of life. A visual comparison of change in the two groups is made. A change of 20% is considered to be clinically meaningful. This primary aim describes the change in symptoms between day 1 and day 14.
# Described herein is a randomized, double-blind, placebo-controlled design where 40 subjects will be randomized to either a placebo cohort or a treatment with OXE-103 cohort. We randomize using the RedCap database. The database is set up to share randomization allocation only with the investigational pharmacy. All subjects are consented and begin the screening period within 28 days post-injury. There is a 7-day screening period prior to randomization and commencement of study treatment to allow for assessment of stability of symptom burden. This screening period must start no later than 28 days post-injury. Starting with Day 1 (end of screening period), the treatment cohort receives OXE-103 40ug/kg SC twice daily by self-injection and the placebo group receives a placebo injection SC twice daily. Study drug and placebo are maintained and dispensed by Investigational Pharmacy. Subjects receive an 8-day supply of syringes pre-loaded with OXE-103 or placebo. Each cohort receives the 2nd set of syringes with OXE-103 or placebo at the day 7 visit. No therapies other than OXE-103 are administered during the 14-day treatment period to either cohort. After completion of 14 days of either placebo or OXE-103 treatment, starting with the Day 14 visit, other medications and therapies can be initiated for either cohort as needed.
# Symptom reduction (AIM 1): Our primary goal is to describe the change in number of symptoms and/or severity in sub-acute concussion with treatment with OXE-103 using the PCSS at days 1 and 15. We will also collect data at days 21 and 44 to potentially describe long term changes and potential lasting effect (AIM 4).
# Subjects complete the PCSS at the following timepoints[17]: upon signing consent (score must 20) (day −7), mid-way through the screening period (day −3), prior to assignment of a treatment cohort (score must 20) (day 1), as well as days 4, 8, 11, 15, 21 and 44. Subjects are instructed to record their symptoms at the same time of day for each assessment timepoint. There can be a two-hour window either way. (e.g. 12 PM+/−2 hrs.) The PCSS is recorded via a RedCap survey. The PCSS is a self-reported assessment of 22 symptoms using a Likert-type scale ranging from 0-6, with 0 indicating no difficulty with the outlined symptom and ratings of 1-6 representing mild-to-severe difficulty with the symptom. The reliability and validity of the PCSS are well documented We also ask subjects to rank their 4 most burdensome symptoms (4MBS) at Day 1 and we analyze these separately. As stated in the Specific Aims the purpose of this study is to collect data that would further refine clinical endpoints that could be used for larger Phase 2 studies and possibly lead to the establishment of pivotal endpoints for Phase 3 registration trials. The 22 symptom PCSS assessment is designed to cover the full spectrum of concussion related symptoms across cognitive, emotional and somatic domains. In that regard the PCSS is particularly useful for diagnosis and monitoring recovery of patients post injury. […]
substance,measurement,setting,value
"ghrelin (GSS(Octanoyl)FLSPEHQRVQQRKESKKPPAKLQPR; UniProt Q9UBU3 24-51, looked up) [OXE-103, naturally occurring peptide comprising 28 amino acids that include an N-octanoyl group at the 3-position of serine]",30% Responders - PCSS: Number of Responders,Day 11,7
same,30% Responders - PCSS: Responder %,Day 11,54%
same,PCSS symptom balance_problems,"Day 15, OXE-103 Treated",22
same,PCSS symptom difficulty_concentrating,"Day 15, OXE-103 Treated",30
same,PCSS symptom difficulty_remembering,"Day 15, OXE-103 Treated",26
same,PCSS symptom dizziness,"Day 15, OXE-103 Treated",21
same,PCSS symptom drowsiness,"Day 15, OXE-103 Treated",25
same,PCSS symptom fatigue,"Day 15, OXE-103 Treated",30
same,PCSS symptom feeling_in_a_fog,"Day 15, OXE-103 Treated",20
same,PCSS symptom feeling_more_emotional,"Day 15, OXE-103 Treated",22
same,PCSS symptom feeling_slowed_down,"Day 15, OXE-103 Treated",23
same,PCSS symptom headache,"Day 15, OXE-103 Treated",25
same,PCSS symptom irritability,"Day 15, OXE-103 Treated",25
same,PCSS symptom nausea,"Day 15, OXE-103 Treated",6
same,PCSS symptom neck_pain,"Day 15, OXE-103 Treated",20
same,PCSS symptom nervous_anxious,"Day 15, OXE-103 Treated",23
same,PCSS symptom numbness_or_tingling,"Day 15, OXE-103 Treated",5
same,PCSS symptom sadness,"Day 15, OXE-103 Treated",21
same,PCSS symptom sensitivity_to_light,"Day 15, OXE-103 Treated",18
same,PCSS symptom sensitivity_to_noise,"Day 15, OXE-103 Treated",16
same,PCSS symptom sleeping_less_than_usual,"Day 15, OXE-103 Treated",22
same,PCSS symptom sleeping_more_than_usual,"Day 15, OXE-103 Treated",15
same,PCSS symptom trouble_falling_asleep,"Day 15, OXE-103 Treated",25
same,PCSS symptom visual_problems,"Day 15, OXE-103 Treated",17
same,PCSS symptom vomiting,"Day 15, OXE-103 Treated",1
same,20% Responders - PCSS: Number of Responders,Day 15,9
same,20% Responders - PCSS: Responder %,Day 15,69%
same,30% Responders - PCSS: Number of Responders,Day 15,7
same,30% Responders - PCSS: Responder %,Day 15,54%
same,PCSS symptom balance_problems,"Day 21, OXE-103 Treated",23
same,PCSS symptom difficulty_concentrating,"Day 21, OXE-103 Treated",24
same,PCSS symptom difficulty_remembering,"Day 21, OXE-103 Treated",26
same,PCSS symptom dizziness,"Day 21, OXE-103 Treated",23
same,PCSS symptom drowsiness,"Day 21, OXE-103 Treated",26
same,PCSS symptom fatigue,"Day 21, OXE-103 Treated",28
same,PCSS symptom feeling_in_a_fog,"Day 21, OXE-103 Treated",24
same,PCSS symptom feeling_more_emotional,"Day 21, OXE-103 Treated",19
same,PCSS symptom feeling_slowed_down,"Day 21, OXE-103 Treated",26
same,PCSS symptom headache,"Day 21, OXE-103 Treated",23
same,PCSS symptom irritability,"Day 21, OXE-103 Treated",21
same,PCSS symptom nausea,"Day 21, OXE-103 Treated",12
same,PCSS symptom neck_pain,"Day 21, OXE-103 Treated",21
same,PCSS symptom nervous_anxious,"Day 21, OXE-103 Treated",16
same,PCSS symptom numbness_or_tingling,"Day 21, OXE-103 Treated",6
same,PCSS symptom sadness,"Day 21, OXE-103 Treated",14
same,PCSS symptom sensitivity_to_light,"Day 21, OXE-103 Treated",21
same,PCSS symptom sensitivity_to_noise,"Day 21, OXE-103 Treated",18
same,PCSS symptom sleeping_less_than_usual,"Day 21, OXE-103 Treated",19
same,PCSS symptom sleeping_more_than_usual,"Day 21, OXE-103 Treated",15
same,PCSS symptom trouble_falling_asleep,"Day 21, OXE-103 Treated",24
same,PCSS symptom visual_problems,"Day 21, OXE-103 Treated",19
same,PCSS symptom vomiting,"Day 21, OXE-103 Treated",0
same,20% Responders - PCSS: Number of Responders,Day 21,9
same,20% Responders - PCSS: Responder %,Day 21,69%
same,30% Responders - PCSS: Number of Responders,Day 21,8
same,30% Responders - PCSS: Responder %,Day 21,62%
same,PCSS symptom balance_problems,"Day 44, OXE-103 Treated",12
same,PCSS symptom difficulty_concentrating,"Day 44, OXE-103 Treated",16
same,PCSS symptom difficulty_remembering,"Day 44, OXE-103 Treated",21
same,PCSS symptom dizziness,"Day 44, OXE-103 Treated",9
same,PCSS symptom drowsiness,"Day 44, OXE-103 Treated",16
same,PCSS symptom fatigue,"Day 44, OXE-103 Treated",17
same,PCSS symptom feeling_in_a_fog,"Day 44, OXE-103 Treated",16
same,PCSS symptom feeling_more_emotional,"Day 44, OXE-103 Treated",7
same,PCSS symptom feeling_slowed_down,"Day 44, OXE-103 Treated",18
same,PCSS symptom headache,"Day 44, OXE-103 Treated",15
same,PCSS symptom irritability,"Day 44, OXE-103 Treated",10
same,PCSS symptom nausea,"Day 44, OXE-103 Treated",7
same,PCSS symptom neck_pain,"Day 44, OXE-103 Treated",14
same,PCSS symptom nervous_anxious,"Day 44, OXE-103 Treated",11
same,PCSS symptom numbness_or_tingling,"Day 44, OXE-103 Treated",6
same,PCSS symptom sadness,"Day 44, OXE-103 Treated",8
same,PCSS symptom sensitivity_to_light,"Day 44, OXE-103 Treated",9
same,PCSS symptom sensitivity_to_noise,"Day 44, OXE-103 Treated",13
same,PCSS symptom sleeping_less_than_usual,"Day 44, OXE-103 Treated",11
same,PCSS symptom sleeping_more_than_usual,"Day 44, OXE-103 Treated",8
same,PCSS symptom trouble_falling_asleep,"Day 44, OXE-103 Treated",16
same,PCSS symptom visual_problems,"Day 44, OXE-103 Treated",9
same,PCSS symptom vomiting,"Day 44, OXE-103 Treated",1
same,20% Responders - PCSS: Number of Responders,Day 44,11
same,20% Responders - PCSS: Responder %,Day 44,85%
same,30% Responders - PCSS: Number of Responders,Day 44,9
same,30% Responders - PCSS: Responder %,Day 44,69%
same,"PCSS symptoms, change from Day 1 to Day 44 (FIG. 14)",aggregated across 11 OXE-103 treatment responders per symptom,reduction in all symptoms
same,balance_problems % change from day 1 to day 44,"reduction, OXE-103 Treated",60%
same,difficulty_concentrating % change from day 1 to day 44,"reduction, OXE-103 Treated",65%
same,difficulty_remembering % change from day 1 to day 44,"reduction, OXE-103 Treated",56%
same,dizziness % change from day 1 to day 44,"reduction, OXE-103 Treated",76%
same,drowsiness % change from day 1 to day 44,"reduction, OXE-103 Treated",58%
same,fatigue % change from day 1 to day 44,"reduction, OXE-103 Treated",60%
same,feeling_in_a_fog % change from day 1 to day 44,"reduction, OXE-103 Treated",65%
same,feeling_more_emotional % change from day 1 to day 44,"reduction, OXE-103 Treated",77%
same,feeling_slowed_down % change from day 1 to day 44,"reduction, OXE-103 Treated",61%
same,headache % change from day 1 to day 44,"reduction, OXE-103 Treated",59%
same,irritability % change from day 1 to day 44,"reduction, OXE-103 Treated",71%
same,nausea % change from day 1 to day 44,"reduction, OXE-103 Treated",61%
same,neck_pain % change from day 1 to day 44,"reduction, OXE-103 Treated",63%
same,nervous_anxious % change from day 1 to day 44,"reduction, OXE-103 Treated",69%
same,numbness_or_tingling % change from day 1 to day 44,"reduction, OXE-103 Treated",63%
same,sadness % change from day 1 to day 44,"reduction, OXE-103 Treated",71%
same,sensitivity_to_light % change from day 1 to day 44,"reduction, OXE-103 Treated",74%
same,sensitivity_to_noise % change from day 1 to day 44,"reduction, OXE-103 Treated",64%
same,sleeping_less_than_usual % change from day 1 to day 44,"reduction, OXE-103 Treated",27%
same,sleeping_more_than_usual % change from day 1 to day 44,"reduction, OXE-103 Treated",67%
same,trouble_falling_asleep % change from day 1 to day 44,"reduction, OXE-103 Treated",57%
same,visual_problems % change from day 1 to day 44,"reduction, OXE-103 Treated",70%
same,vomiting % change from day 1 to day 44,"reduction, OXE-103 Treated",50%
